Experimental data reported in paper PMC6979384, “Characterization of the plant homeodomain (PHD) reader family for their histone tail interactions” (Epigenetics & Chromatin, 2020).

Experiments:
Experiment in all cases: Histone peptide microarray
Assay type in all cases: binding, human
AIRE (PP) = conditions: sheet "Array Heatmap"; GST-tagged AIRE (PP); arrays performed twice, total replicate number n = 4
In short: (§1)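 GST-tagged PHD finger readers were expressed, purified and applied at 0.5 μM to a microarray of 293 synthetic histone peptides carrying single or combinatorial PTMs, using an optimized protocol. Binding signals are averages with standard deviation from 4 replicates.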

BAZ2B = conditions: sheet "Array Heatmap"; GST-tagged BAZ2B; arrays performed twice, total replicate number n = 4
In short: as §1

BPTF (PB) = conditions: sheet "Array Heatmap"; GST-tagged BPTF (PB); arrays performed twice, total replicate number n = 4
In short: as §1

CHD4 (PPCC) = conditions: sheet "Array Heatmap"; GST-tagged CHD4 (PPCC); arrays performed twice, total replicate number n = 4
In short: as §1

CHD5 (PCC) = conditions: sheet "Array Heatmap"; GST-tagged CHD5 (PCC); arrays performed twice, total replicate number n = 4
In short: as §1

CHD5 (PPCC) = conditions: sheet "Array Heatmap"; GST-tagged CHD5 (PPCC); arrays performed twice, total replicate number n = 4
In short: as §1

DIDO1 = conditions: sheet "Array Heatmap"; GST-tagged DIDO1; arrays performed twice, total replicate number n = 4
In short: as §1

DPF2 (PPC2W2) = conditions: sheet "Array Heatmap"; GST-tagged DPF2 (PPC2W2); arrays performed twice, total replicate number n = 4
In short: as §1

ING1 = conditions: sheet "Array Heatmap"; GST-tagged ING1; arrays performed twice, total replicate number n = 4
In short: as §1

ING2 = conditions: sheet "Array Heatmap"; GST-tagged ING2; arrays performed twice, total replicate number n = 4
In short: as §1

ING3 = conditions: sheet "Array Heatmap"; GST-tagged ING3; arrays performed twice, total replicate number n = 4
In short: as §1

ING4 = conditions: sheet "Array Heatmap"; GST-tagged ING4; arrays performed twice, total replicate number n = 4
In short: as §1

ING5 = conditions: sheet "Array Heatmap"; GST-tagged ING5; arrays performed twice, total replicate number n = 4
In short: as §1

KDM4C (TTP) = conditions: sheet "Array Heatmap"; GST-tagged KDM4C (TTP); arrays performed twice, total replicate number n = 4
In short: as §1

KDM5A (1) = conditions: sheet "Array Heatmap"; GST-tagged KDM5A (1); arrays performed twice, total replicate number n = 4
In short: as §1

KDM5A (3) = conditions: sheet "Array Heatmap"; GST-tagged KDM5A (3); arrays performed twice, total replicate number n = 4
In short: as §1

KDM5B (1) = conditions: sheet "Array Heatmap"; GST-tagged KDM5B (1); arrays performed twice, total replicate number n = 4
In short: as §1

KDM5B (3) = conditions: sheet "Array Heatmap"; GST-tagged KDM5B (3); arrays performed twice, total replicate number n = 4
In short: as §1

KDM7A = conditions: sheet "Array Heatmap"; GST-tagged KDM7A; arrays performed twice, total replicate number n = 4
In short: as §1

MLL5 = conditions: sheet "Array Heatmap"; GST-tagged MLL5; arrays performed twice, total replicate number n = 4
In short: as §1

MORC3 (CW) = conditions: sheet "Array Heatmap"; GST-tagged MORC3 (CW); arrays performed twice, total replicate number n = 4
In short: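 A peptide microarray holding 293 synthetic histone peptides with individual or combinatorial modifications was probed with each GST-PHD protein at 0.5 μM. Values represent mean intensity (±SD) from four replicates.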

PHF13 = conditions: sheet "Array Heatmap"; GST-tagged PHF13; arrays performed twice, total replicate number n = 4
In short: as §1

PHF21A = conditions: sheet "Array Heatmap"; GST-tagged PHF21A; arrays performed twice, total replicate number n = 4
In short: as §1

PHF23 = conditions: sheet "Array Heatmap"; GST-tagged PHF23; arrays performed twice, total replicate number n = 4
In short: as §1

PHF2 = conditions: sheet "Array Heatmap"; GST-tagged PHF2; arrays performed twice, total replicate number n = 4
In short: as §1

PHF8 = conditions: sheet "Array Heatmap"; GST-tagged PHF8; arrays performed twice, total replicate number n = 4
In short: as §1

PHRF1 (RP) = conditions: sheet "Array Heatmap"; GST-tagged PHRF1 (RP); arrays performed twice, total replicate number n = 4
In short: as §1

RAG2 = conditions: sheet "Array Heatmap"; GST-tagged RAG2; arrays performed twice, total replicate number n = 4
In short: as §1

SP140L = conditions: sheet "Array Heatmap"; GST-tagged SP140L; arrays performed twice, total replicate number n = 4
In short: as §1

TAF3 = conditions: sheet "Array Heatmap"; GST-tagged TAF3; arrays performed twice, total replicate number n = 4
In short: as §1

TRIM66 (PB) = conditions: sheet "Array Heatmap"; GST-tagged TRIM66 (PB); arrays performed twice, total replicate number n = 4
In short: as §1

| Substance | Array Heatmap signal, AIRE (PP) (AIRE (PP)) | Array Heatmap signal, BAZ2B (BAZ2B) | Array Heatmap signal, BPTF (PB) (BPTF (PB)) | Array Heatmap signal, CHD4 (PPCC) (CHD4 (PPCC)) | Array Heatmap signal, CHD5 (PCC) (CHD5 (PCC)) | Array Heatmap signal, CHD5 (PPCC) (CHD5 (PPCC)) | Array Heatmap signal, DIDO1 (DIDO1) | Array Heatmap signal, DPF2 (PPC2W2) (DPF2 (PPC2W2)) | Array Heatmap signal, ING1 (ING1) | Array Heatmap signal, ING2 (ING2) | Array Heatmap signal, ING3 (ING3) | Array Heatmap signal, ING4 (ING4) | Array Heatmap signal, ING5 (ING5) | Array Heatmap signal, KDM4C (TTP) (KDM4C (TTP)) | Array Heatmap signal, KDM5A (1) (KDM5A (1)) | Array Heatmap signal, KDM5A (3) (KDM5A (3)) | Array Heatmap signal, KDM5B (1) (KDM5B (1)) | Array Heatmap signal, KDM5B (3) (KDM5B (3)) | Array Heatmap signal, KDM7A (KDM7A) | Array Heatmap signal, MLL5 (MLL5) | also measured |
| --- | --- | --- | --- | --- | --- | --- | --- | --- | --- | --- | --- | --- | --- | --- | --- | --- | --- | --- | --- | --- | --- |
| H3R8me2s + K9me2: H3 1-20 | 0.5603 | 0.5059 | 0.3651 | 0.5754 | 0.7949 | 0.5952 | 0.6168 | 0.6724 | 0.5182 | 0.6129 | 0.4823 | 0.4841 | 0.3835 | 0.5379 | 0.5094 | 0.4844 | 0.6818 | 0.5187 | 0.4179 | 0.5188 | Array Heatmap signal, MORC3 (CW) (MORC3 (CW)): 0.398; Array Heatmap signal, PHF13 (PHF13): 0.6345; Array Heatmap signal, PHF21A (PHF21A): 0.4814; Array Heatmap signal, PHF23 (PHF23): 0.5163; Array Heatmap signal, PHF2 (PHF2): 0.4235; Array Heatmap signal, PHF8 (PHF8): 0.3655; Array Heatmap signal, PHRF1 (RP) (PHRF1 (RP)): 0.5504; Array Heatmap signal, RAG2 (RAG2): 0.2593; Array Heatmap signal, SP140L (SP140L): 0.3733; Array Heatmap signal, TAF3 (TAF3): 0.2872; Array Heatmap signal, TRIM66 (PB) (TRIM66 (PB)): 0.5924 |
| H3R8me2s + K9me3: H3 1-20 | 0.6619 | 0.5401 | 0.4039 | 0.6275 | 0.8709 | 0.6469 | 0.7617 | 0.784 | 0.6071 | 0.6159 | 0.5417 | 0.5372 | 0.4272 | 0.5668 | 0.5383 | 0.5266 | 0.6697 | 0.5509 | 0.3933 | 0.5932 | Array Heatmap signal, MORC3 (CW) (MORC3 (CW)): 0.4796; Array Heatmap signal, PHF13 (PHF13): 0.7048; Array Heatmap signal, PHF21A (PHF21A): 0.5424; Array Heatmap signal, PHF23 (PHF23): 0.594; Array Heatmap signal, PHF2 (PHF2): 0.5404; Array Heatmap signal, PHF8 (PHF8): 0.4276; Array Heatmap signal, PHRF1 (RP) (PHRF1 (RP)): 0.5937; Array Heatmap signal, RAG2 (RAG2): 0.2769; Array Heatmap signal, SP140L (SP140L): 0.3989; Array Heatmap signal, TAF3 (TAF3): 0.3134; Array Heatmap signal, TRIM66 (PB) (TRIM66 (PB)): 0.7482 |
